# Laboratory results from ChEMBL document CHEMBL3885861, “Open TG-GATES”.
# Species: Rattus norvegicus
# Test: Open TG-GATES - Regimen: Daily Repeat
# Format: toxicity, organism-based, Sprague-Dawley
# Parameters: regimen Daily Repeat, gender Male, age 6 weeks
# Settings: in vivo, po, 300 mg/kg, route gavage, dose level Middle; for APTT / Bas / Eos / Fbg / Hb / Ht / Lym / MCH / MCHC / MCV / Mono / Neu / PT / Plat / RBC / Ret / WBC: tissue Blood; for KIDNEY_L / KIDNEY_R / KIDNEY_TOTAL: tissue Kidney; for LIVER: tissue Liver; for A/G / ALP / ALT / AST / BUN / CRE / Ca / Cl / DBIL / GLC / IP / K / LDH / Na / PL / RALB / TBIL / TC / TG / TP / gamma-GTP: tissue Plasma
structure (smiles),measurement,setting,value
CCOC(=O)CCC(=O)O[C@H]1[C@H](O[C@@H]2[C@@H](C)[C@H](O[C@H]3C[C@@](C)(OC)[C@@H](O)[C@H](C)O3)[C@@H](C)C(=O)O[C@H](CC)[C@@](C)(O)[C@H](O)[C@@H](C)C(=O)[C@H](C)C[C@@]2(C)O)O[C@H](C)C[C@@H]1N(C)C [ERYTHROMYCIN ETHYLSUCCINATE],TERMINAL_BW,"72 h, time 3 day",237.7 g
same,APTT,"72 h, time 3 day",21.3 s
same,Bas,"72 h, time 3 day",0%
same,Eos,"72 h, time 3 day",1%
same,Fbg,"72 h, time 3 day",311.6 mg/dL
same,Hb,"72 h, time 3 day",13.5 g/dL
same,Ht,"72 h, time 3 day",39.3%
same,Lym,"72 h, time 3 day",83.2%
same,MCH,"72 h, time 3 day",21.5 pg
same,MCHC,"72 h, time 3 day",34.4%
same,MCV,"72 h, time 3 day",62.7 fL
same,Mono,"72 h, time 3 day",3%
same,Neu,"72 h, time 3 day",11.8%
same,PT,"72 h, time 3 day",15.8 s
same,Plat,"72 h, time 3 day",114.1 x10_4/uL
same,RBC,"72 h, time 3 day",627.6 x10_4/ul
same,Ret,"72 h, time 3 day",5.1%
same,WBC,"72 h, time 3 day",94.1 x10_2/uL
same,KIDNEY_L,"72 h, time 3 day",1 g
same,KIDNEY_R,"72 h, time 3 day",1 g
same,KIDNEY_TOTAL,"72 h, time 3 day",2 g
same,LIVER,"72 h, time 3 day",10.9 g
same,A/G,"72 h, time 3 day",1.2
same,ALP,"72 h, time 3 day",1728.8 IU/L
same,ALT,"72 h, time 3 day",44 IU/L
same,AST,"72 h, time 3 day",76 IU/L
same,BUN,"72 h, time 3 day",18.6 mg/dL
same,CRE,"72 h, time 3 day",0.2 mg/dL
same,Ca,"72 h, time 3 day",10.4 mg/dL
same,Cl,"72 h, time 3 day",108 meq/L
same,DBIL,"72 h, time 3 day",0 mg/dL
same,GLC,"72 h, time 3 day",192.6 mg/dL
same,IP,"72 h, time 3 day",7.3 mg/dL
same,K,"72 h, time 3 day",4.2 meq/L
same,LDH,"72 h, time 3 day",261 IU/L
same,Na,"72 h, time 3 day",141.2 meq/L
same,PL,"72 h, time 3 day",133.8 mg/dL
same,RALB,"72 h, time 3 day",3 g/dL
same,TBIL,"72 h, time 3 day",0.016 mg/dL
same,TC,"72 h, time 3 day",72.2 mg/dL
same,TG,"72 h, time 3 day",100.6 mg/dL
same,TP,"72 h, time 3 day",5.5 g/dL
same,gamma-GTP,"72 h, time 3 day",1.4 IU/L
same,TERMINAL_BW,"[…], time 7 day",269.9 g
same,TERMINAL_BW,"[…], time 14 day",321.9 g
same,TERMINAL_BW,"[…], time 28 day",391.2 g
same,APTT,"[…], time 7 day",22.2 s
same,Bas,"[…], time 7 day",0%
same,Eos,"[…], time 7 day",1%
same,Fbg,"[…], time 7 day",331.6 mg/dL
same,Hb,"[…], time 7 day",13.7 g/dL
same,Ht,"[…], time 7 day",40.6%
same,Lym,"[…], time 7 day",84.8%
same,MCH,"[…], time 7 day",20.9 pg
same,MCHC,"[…], time 7 day",33.6%
same,MCV,"[…], time 7 day",62.3 fL
same,Mono,"[…], time 7 day",2.2%
same,Neu,"[…], time 7 day",11.2%
same,PT,"[…], time 7 day",16.3 s
same,Plat,"[…], time 7 day",120.3 x10_4/uL
same,RBC,"[…], time 7 day",653 x10_4/ul
same,Ret,"[…], time 7 day",6.3%
same,WBC,"[…], time 7 day",86.1 x10_2/uL
same,APTT,"[…], time 14 day",22.1 s
same,Bas,"[…], time 14 day",0%
same,Eos,"[…], time 14 day",1%
same,Fbg,"[…], time 14 day",335.6 mg/dL
same,Hb,"[…], time 14 day",14.1 g/dL
same,Ht,"[…], time 14 day",40.7%
same,Lym,"[…], time 14 day",87.4%
same,MCH,"[…], time 14 day",20.5 pg
same,MCHC,"[…], time 14 day",34.7%
same,MCV,"[…], time 14 day",58.9 fL
same,Mono,"[…], time 14 day",2.2%
same,Neu,"[…], time 14 day",8.2%
same,PT,"[…], time 14 day",16.1 s
same,Plat,"[…], time 14 day",116 x10_4/uL
same,RBC,"[…], time 14 day",690 x10_4/ul
same,Ret,"[…], time 14 day",4.9%
same,WBC,"[…], time 14 day",110.3 x10_2/uL
same,APTT,"[…], time 28 day",24.1 s
same,Bas,"[…], time 28 day",0%
same,Eos,"[…], time 28 day",1.2%
same,Fbg,"[…], time 28 day",339.2 mg/dL
same,Hb,"[…], time 28 day",15.6 g/dL
same,Ht,"[…], time 28 day",45.3%
same,Lym,"[…], time 28 day",85.4%
same,MCH,"[…], time 28 day",19 pg
same,MCHC,"[…], time 28 day",34.3%
same,MCV,"[…], time 28 day",55.3 fL
same,Mono,"[…], time 28 day",2.4%
same,Neu,"[…], time 28 day",9.2%
same,PT,"[…], time 28 day",16 s
same,Plat,"[…], time 28 day",99.2 x10_4/uL
same,RBC,"[…], time 28 day",819.8 x10_4/ul
same,Ret,"[…], time 28 day",2.5%
same,WBC,"[…], time 28 day",96.8 x10_2/uL
same,KIDNEY_L,"[…], time 7 day",1.1 g
same,KIDNEY_R,"[…], time 7 day",1.1 g
same,KIDNEY_TOTAL,"[…], time 7 day",2.2 g
same,KIDNEY_L,"[…], time 14 day",1.3 g
same,KIDNEY_R,"[…], time 14 day",1.3 g
same,KIDNEY_TOTAL,"[…], time 14 day",2.6 g
same,KIDNEY_L,"[…], time 28 day",1.4 g
same,KIDNEY_R,"[…], time 28 day",1.4 g
same,KIDNEY_TOTAL,"[…], time 28 day",2.9 g
same,LIVER,"[…], time 7 day",12.2 g
same,LIVER,"[…], time 14 day",13.9 g
same,LIVER,"[…], time 28 day",15.4 g
same,A/G,"[…], time 7 day",1.2
same,ALP,"[…], time 7 day",1819.6 IU/L
same,ALT,"[…], time 7 day",42.4 IU/L
same,AST,"[…], time 7 day",70.4 IU/L
same,BUN,"[…], time 7 day",19 mg/dL
same,CRE,"[…], time 7 day",0.2 mg/dL
same,Ca,"[…], time 7 day",10.6 mg/dL
same,Cl,"[…], time 7 day",107.6 meq/L
same,DBIL,"[…], time 7 day",0 mg/dL
same,GLC,"[…], time 7 day",194.6 mg/dL
same,IP,"[…], time 7 day",7.3 mg/dL
same,K,"[…], time 7 day",4.1 meq/L
same,LDH,"[…], time 7 day",185.6 IU/L
same,Na,"[…], time 7 day",142 meq/L
same,PL,"[…], time 7 day",148.2 mg/dL
same,RALB,"[…], time 7 day",3 g/dL
same,TBIL,"[…], time 7 day",0.002 mg/dL
same,TC,"[…], time 7 day",76 mg/dL
same,TG,"[…], time 7 day",123.6 mg/dL
same,TP,"[…], time 7 day",5.5 g/dL
same,gamma-GTP,"[…], time 7 day",1.6 IU/L
same,A/G,"[…], time 14 day",1.1
same,ALP,"[…], time 14 day",1368.6 IU/L
same,ALT,"[…], time 14 day",35 IU/L
same,AST,"[…], time 14 day",70.2 IU/L
same,BUN,"[…], time 14 day",19.4 mg/dL
same,CRE,"[…], time 14 day",0.2 mg/dL
same,Ca,"[…], time 14 day",10.4 mg/dL
same,Cl,"[…], time 14 day",107.6 meq/L
same,DBIL,"[…], time 14 day",0 mg/dL
same,GLC,"[…], time 14 day",206.6 mg/dL
same,IP,"[…], time 14 day",7.2 mg/dL
same,K,"[…], time 14 day",4 meq/L
same,LDH,"[…], time 14 day",157.8 IU/L
same,Na,"[…], time 14 day",141.8 meq/L
same,PL,"[…], time 14 day",146.8 mg/dL
same,RALB,"[…], time 14 day",2.9 g/dL
same,TBIL,"[…], time 14 day",0.01 mg/dL
same,TC,"[…], time 14 day",79.8 mg/dL
same,TG,"[…], time 14 day",105.2 mg/dL
same,TP,"[…], time 14 day",5.5 g/dL
same,gamma-GTP,"[…], time 14 day",1.6 IU/L
same,A/G,"[…], time 28 day",1.1
same,ALP,"[…], time 28 day",1061.2 IU/L
same,ALT,"[…], time 28 day",36.8 IU/L
same,AST,"[…], time 28 day",59.2 IU/L
same,BUN,"[…], time 28 day",19.6 mg/dL
same,CRE,"[…], time 28 day",0.2 mg/dL
same,Ca,"[…], time 28 day",10.5 mg/dL
same,Cl,"[…], time 28 day",106.4 meq/L
same,DBIL,"[…], time 28 day",0 mg/dL
same,GLC,"[…], time 28 day",203.4 mg/dL
same,IP,"[…], time 28 day",6.9 mg/dL
same,K,"[…], time 28 day",4 meq/L
same,LDH,"[…], time 28 day",130.6 IU/L
same,Na,"[…], time 28 day",141.4 meq/L
same,PL,"[…], time 28 day",151.8 mg/dL
same,RALB,"[…], time 28 day",3.1 g/dL
same,TBIL,"[…], time 28 day",0.014 mg/dL
same,TC,"[…], time 28 day",78.2 mg/dL
same,TG,"[…], time 28 day",140 mg/dL
same,TP,"[…], time 28 day",5.8 g/dL
same,gamma-GTP,"[…], time 28 day",2.2 IU/L
